Measured values taken from PubChem BioAssay (NCI).
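Each compound was tested at five concentrations against cells in 96-well plates for 48 hours. TGI marks complete inhibition of growth.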

Legend:
Experiment in all cases: NCI anticancer screen, dose series, 48 h
SK-MEL-28 melanoma = tested on: SK-MEL-28 melanoma
MOLT-4 leukemia = tested on: MOLT-4 leukemia
OVCAR-4 ovarian = tested on: OVCAR-4 ovarian
MDA-MB-231 breast = tested on: MDA-MB-231 breast
SK-MEL-5 melanoma = tested on: SK-MEL-5 melanoma
MCF7 breast = tested on: MCF7 breast
BT-549 breast = tested on: BT-549 breast
ACHN renal = tested on: ACHN renal
SF-539 CNS = tested on: SF-539 CNS
NCI-H23 lung = tested on: NCI-H23 lung
CCRF-CEM leukemia = tested on: CCRF-CEM leukemia
NCI-H226 lung = tested on: NCI-H226 lung
OVCAR-5 ovarian = tested on: OVCAR-5 ovarian
HOP-92 NSCLC = tested on: HOP-92 NSCLC
HOP-62 NSCLC = tested on: HOP-62 NSCLC
SN12C renal = tested on: SN12C renal
RPMI-8226 leukemia = tested on: RPMI-8226 leukemia
HCT-116 colon = tested on: HCT-116 colon
NCI-H460 lung = tested on: NCI-H460 lung
T-47D breast = tested on: T-47D breast

CC(C)COC(=O)OC(=O)c1ccc(N(C)Cc2cnc3nc(N)nc(N)c3n2)cc1
TGI (SK-MEL-28 melanoma): > 100000 nM
TGI (MOLT-4 leukemia): > 100000 nM
TGI (OVCAR-4 ovarian): > 100000 nM
TGI (MDA-MB-231 breast): > 100000 nM
TGI (SK-MEL-5 melanoma): > 93900 nM
TGI (MCF7 breast): > 100000 nM
TGI (BT-549 breast): 97800 nM
TGI (ACHN renal): > 79400 nM
TGI (SF-539 CNS): > 51800 nM
TGI (NCI-H23 lung): > 100000 nM
TGI (CCRF-CEM leukemia): > 100000 nM
TGI (NCI-H226 lung): > 100000 nM
TGI (OVCAR-5 ovarian): > 100000 nM
TGI (HOP-92 NSCLC): > 100000 nM
TGI (HOP-62 NSCLC): > 100000 nM
TGI (SN12C renal): > 100000 nM
TGI (RPMI-8226 leukemia): > 100000 nM
TGI (HCT-116 colon): > 100000 nM
TGI (NCI-H460 lung): > 100000 nM
TGI (T-47D breast): > 100000 nM

CC(=O)Oc1c2c(c(CC=C(C)C)c3c1C(=O)C1=C[C@@H]4CC5C(C)(C)OC(C/C=C(/C)C(=O)O)(C4=O)[C@@]15O3)OC(C)(CCC=C(C)C)C=C2 (stereo not given in full)
TGI (SK-MEL-28 melanoma): 378 nM
TGI (MOLT-4 leukemia): 32000 nM
TGI (OVCAR-4 ovarian): 567 nM
TGI (MDA-MB-231 breast): 779 nM
TGI (SK-MEL-5 melanoma): 737 nM
TGI (MCF7 breast): 1400 nM
TGI (BT-549 breast): 461 nM
TGI (ACHN renal): 279 nM
TGI (SF-539 CNS): 252 nM
TGI (NCI-H23 lung): 1010 nM
TGI (CCRF-CEM leukemia): 4750 nM
TGI (NCI-H226 lung): 834 nM
TGI (OVCAR-5 ovarian): 1160 nM
TGI (HOP-92 NSCLC): 1050 nM
TGI (HOP-62 NSCLC): 1880 nM
TGI (SN12C renal): 530 nM
TGI (RPMI-8226 leukemia): 538 nM
TGI (HCT-116 colon): 316 nM
TGI (NCI-H460 lung): 1970 nM
TGI (T-47D breast): 439 nM
